Assay results as given in ChEMBL document CHEMBL1129781, “Inhibition of protein phosphatase 2A by cantharidin analogues” (Bioorg Med Chem Lett, 1996).
pIC50: −log10 of the molar value.

What was measured:
[1] = biological target: Serine/threonine-protein phosphatase 2A 65 kDa regulatory subunit A alpha isoform (Mus musculus, UniProt Q76MZ3); test: Compound was tested for inhibitory concentration of Protein Phosphatase 2A (PP2A).
Mus musculus [2] = organism: Mus musculus; test: Inhibition of Protein Phosphatase 2A (PP2A) partially purified from mouse brain; format: tissue-based; set-up: concentration or dose not given beside the values; settings: concentration not given here
[3] = Compound was tested for inhibition of specific [3H]cantharidin binding to CBP: Range=4-8; set-up: species or system Mus musculus
Mus musculus [4] = organism: Mus musculus; test: Compound was tested for inhibition of cantharidin-binding protein(CBP) phosphatase isolated from mouse liver: Range=92-95; settings: concentration not given here
[5] = Compound was tested for inhibition of specific [3H]cantharidin binding to CBP: Range= 200->100000; set-up: species or system Mus musculus
Mus musculus [6] = organism: Mus musculus; test: Compound was tested for inhibition of cantharidin-binding protein(CBP) phosphatase isolated from mouse liver.; set-up: concentration or dose not given beside the values; settings: concentration not given here
[7] = Compound was tested for inhibition of specific [3H]cantharidin binding to CBP.; set-up: species or system Mus musculus
[8] = Compound was tested for inhibition of specific [3H]cantharidin binding to CBP: Range= 10-50; set-up: species or system Mus musculus
Mus musculus [9] = organism: Mus musculus; test: Compound was tested for inhibition of cantharidin-binding protein(CBP) phosphatase isolated from mouse liver: Range= 22-51; settings: concentration not given here

Serine/threonine-protein phosphatase 2A 65 kDa regulatory subunit A alpha isoform, sequence (Q76MZ3 whole entry, canonical isoform): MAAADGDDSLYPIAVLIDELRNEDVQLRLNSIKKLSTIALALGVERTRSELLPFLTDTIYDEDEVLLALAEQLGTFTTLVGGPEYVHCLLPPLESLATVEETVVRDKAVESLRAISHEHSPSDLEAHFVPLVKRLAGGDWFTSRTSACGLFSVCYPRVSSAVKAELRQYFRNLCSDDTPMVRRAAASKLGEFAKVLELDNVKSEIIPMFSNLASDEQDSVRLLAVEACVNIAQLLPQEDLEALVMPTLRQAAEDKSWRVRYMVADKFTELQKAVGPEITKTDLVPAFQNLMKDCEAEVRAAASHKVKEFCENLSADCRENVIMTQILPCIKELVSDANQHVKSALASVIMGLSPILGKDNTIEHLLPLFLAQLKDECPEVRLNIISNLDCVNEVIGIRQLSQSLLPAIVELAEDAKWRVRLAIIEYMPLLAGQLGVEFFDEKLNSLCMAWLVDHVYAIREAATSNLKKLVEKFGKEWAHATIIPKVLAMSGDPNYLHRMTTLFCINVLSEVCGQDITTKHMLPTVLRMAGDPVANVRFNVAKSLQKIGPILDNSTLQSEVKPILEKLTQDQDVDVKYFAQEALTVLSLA

CC12C(=O)OC(=O)C1(C)C1CCC2O1 (stereo unspecified)
pIC50 [1]: 5.10
inhibition (Mus musculus [2]): 95%
pIC50 [3]: 8.40
inhibition (Mus musculus [4]): 92%

O=C1OC(=O)C2C3CCC(C3)C12 (stereo in doubt; 11)
inhibition (Mus musculus [2]): 13.3%

COC(=O)C1CC2C=CC1C2 (stereo unspecified)
inhibition (Mus musculus [2]): 30.8%

O=C1OC(=O)[C@H]2[C@@H]1[C@H]1C=C[C@H]2C1 (stereo in doubt; 5)
inhibition (Mus musculus [2]): 48.1%

N#CCC1CC2OC1C(C(=O)O)C2C(=O)O (stereo unspecified)
pIC50 [5]: < 4.00
inhibition (Mus musculus [6]): 0%

O=C1OC(=O)C2CC=CCC12 (stereo unspecified)
inhibition (Mus musculus [2]): 24%

O=C(O)C1C2C=CC(C2)C1C(=O)O (stereo unspecified)
inhibition (Mus musculus [2]): 17.2%

O=C(O)C1C2C=CC(O2)C1C(=O)O (stereo unspecified)
pIC50 [1]: 3.52
inhibition (Mus musculus [2]): 80.3%

O=C1OC(=O)C2C3C=CC(O3)C12 (stereo unspecified)
pIC50 [1]: 4.40
inhibition (Mus musculus [2]): 95.2%

CC12CCC(C)(O1)C(C(=O)O)C2C(=O)O (stereo unspecified)
pIC50 [5]: < 4.00
inhibition (Mus musculus [6]): 0%

O=C1OC(=O)C2C3CCC(C3)C12 (stereo in doubt; 7)
inhibition (Mus musculus [2]): 38.7%

CC1(C(=O)O)C2CCC(O2)C1(C)C(=O)O (stereo unspecified) [CANTHARIDIC_ACID]
pIC50 [7]: 5.40
inhibition (Mus musculus [6]): 95%

O=C(O)C1CC2C=CC1C2 (stereo unspecified)
inhibition (Mus musculus [2]): 3.8%

CC1(C(=O)O)C2CCC(O2)C1C(=O)O (stereo unspecified)
pIC50 [8]: 7.30
inhibition (Mus musculus [9]): 51%

CCOC(=O)C1CC2OC1C(C(=O)O)C2C(=O)O (stereo unspecified)
pIC50 [5]: < 4.00
inhibition (Mus musculus [6]): 0%

O=C(O)C1CC2OC1C(C(=O)O)C2C(=O)O (stereo unspecified)
pIC50 [8]: 7.30
inhibition (Mus musculus [9]): 51%

O=C1OC(=O)C23CCCC12C1CCC3O1 (stereo unspecified)
pIC50 [7]: 5.40
inhibition (Mus musculus [6]): 95%

O=C(O)C1CC=CCC1C(=O)O (stereo unspecified)
inhibition (Mus musculus [2]): 12.2%

O=C1OC(=O)C2C3CCC(O3)C12 (stereo unspecified) [DEMETHYL-CANTHARIDIN]
pIC50 [1]: 4.15
inhibition (Mus musculus [2]): 88.3%

O=C1OC(=O)[C@H]2[C@@H]1[C@H]1C=C[C@H]2C1 (stereo in doubt; 6)
inhibition (Mus musculus [2]): 48.8%

O=C(O)[C@@H]1[C@H](C(=O)O)[C@H]2CC[C@@H]1O2 [ENDOTHALL]
pIC50 [8]: 7.30
inhibition (Mus musculus [9]): 51%

O=C1OC(=O)C2CCCCC12 (stereo unspecified)
inhibition (Mus musculus [2]): 9.2%
